The text below walks through data of article doi:10.1101/2024.12.25.630315 (bioRxiv, 2024).

Numbered stars: 1 amine (or outer) side, 2 acyl side, 3 side chain; on linkers, the order of the positions; unused ones are H or OH. Bridge positions count the residues as written; N and C are the ends. Square brackets hold non-standard residues; d marks the D form. Primed or numbered codes have the meaning given here. * marks the point of attachment. TATA = O=C(CC[*:1])N1CN(C(=O)CC[*:2])CN(C(=O)CC[*:3])C1; NOTA = O=C(O)CN1CCN(CC(=O)O)CCN(CC(=O)*)CC1; Hyp = O=C(O)[C@@H]1C[C@@H](O)CN1; hArg = N=C(N)NCCCC[C@H](N)C(=O)O; PEG12′ = not defined here

Data set [1] is classed as physicochemical. On the procedure:
The ^68Ge/^68Ga generator was manually eluted using […] of 0.1M HCl (Ultrapure trace-metal-free) in four different fractions (2.4 mL, 1 mL, 1 mL, and 1.4 mL). […] The reaction mixture was incubated for 12 min at 65 °C in a temperature-controlled heating block and purified on a RP-HPLC system using a semi-preparative C-18 Luna column ([…], 10 × 250 mm Phenomenex, Torrance, CA). The HPLC condition was gradient elution starting with 20% acetonitrile: water (0.1% formic acid) and reaching 60% acetonitrile: water (0.1% formic acid) in 20 min at a flow rate of 5 mL/min. […] The desired radiolabeled fraction was concentrated under a stream of N2 at 60 °C, formulated in 10% EtOH in saline, and used for in vitro and in vivo studies. The whole radiolabeling process was completed in approximately 35 min. Quality control, stability studies, and chemical identity were also performed on the same HPLC system using the same HPLC gradient as described above.

Another data set has as its system T24 cells. Description: In vitro binding of [^68Ga]AJ647 to T24 cells. The class given is cell-based. Conditions: ~37 kBq (~1 μCi), 4°C, 1 hour, mean ± SD. Here is the method:
[…] After incubation, cells were washed three times with ice cold PBS containing 0.1% Tween®20 and counted on an automated gamma counter. All cell radioactivity uptake studies were performed in quadruplicate for each cell line and repeated three times.

Another data set is described as follows: in vivo. Conditions: male, mouse, iv, 1.85 MBq, total radioactivity. On the procedure:
All mouse studies were conducted through Johns Hopkins University Animal Care and Use Committee (ACUC) approved protocols. Protocol M021M175 was approved by Chair, ACUC. Xenografts were established in five-to-six-weeks old, male, non-obese, diabetic, severe-combined immunodeficient gamma (NSG) mice obtained from the Johns Hopkins University Immune Compromised Animal Core.
Mice were injected with cancer cells subcutaneously in […] PBS (top right flank) for all tumor models. Following cell numbers were used: HT1376 (4 M), UC9 (3 M), UC14 (3 M), RT112 (1.5 M), T24(3 M), SCaBER (4 M). Mice with tumor volumes of 100–200 mm^3 were used for all experiments. A minimum of 4 mice were used for all biodistribution studies. A minimum of 7 mice were used in pharmacodynamics experiment to account for greater variability.
To validate imaging studies, ex vivo biodistribution studies were conducted in mice with tumors of size 100–200 mm^3. Mice received ~50 μCi (1.85 MBq) of [^68Ga]AJ647 in […] of 5% ethanol in saline intravenously and mice were sacrificed at 5–180 min after [^68Ga]AJ647 injection for pharmacokinetic evaluation (n=4 per timepoint). In all other studies, 60 min time-point was chosen. Selected tissues (Blood, Skin, Muscle, Bone, Salivary glands, Tumor, Lungs, Heart, Liver, Pancreas, Spleen, Kidneys, Bladder, Testicles) were collected, weighed, counted, and their %IA/g values calculated as described previously (PMID: 37793856). For EV pharmacodynamics studies, fewer organs were harvested to accommodate more number of mice.

The next data set has as its target T1, human Nectin-4 (Homo sapiens, UniProt Q96NY8).
T1 construct: purchased R&D systems 2659-N4–050
T1 sequence (Q96NY8 32-349 limits assumed): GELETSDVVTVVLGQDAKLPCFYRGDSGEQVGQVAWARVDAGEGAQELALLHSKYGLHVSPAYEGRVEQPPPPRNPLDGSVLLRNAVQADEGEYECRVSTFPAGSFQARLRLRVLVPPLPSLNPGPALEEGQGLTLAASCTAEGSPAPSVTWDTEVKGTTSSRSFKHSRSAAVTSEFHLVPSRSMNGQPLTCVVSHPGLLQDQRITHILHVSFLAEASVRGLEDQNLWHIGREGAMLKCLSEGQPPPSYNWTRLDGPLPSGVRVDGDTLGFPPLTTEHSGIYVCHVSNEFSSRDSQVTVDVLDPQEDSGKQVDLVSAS
Description: Surface plasmon resonance, human Nectin-4. It counts as binding. Conditions: SPR Biacore T200, CM5 chip, 25 °C, His-tagged human Nectin-4 captured, PBS-P+1% DMSO, 1:1 kinetics fit; mean±SD n=3. On the procedure:
(§1) The affinity of AJ647 for human and mouse Nectin-4 recombinant proteins were evaluated by SPR. The experiments were conducted using a Biacore T200 instrument with a CM5 chip at 25 °C. The ligands used were His-Tagged human Nectin-4 (R&D systems, catalog # 2659-N4–050, 44 kDa, 0.2 mg/ml stock concentration) and mouse Nectin-4 proteins (R&D systems, catalog # 3116-N4–050, 45 kDa, 0.2 mg/ml stock concentration), which were immobilized onto the CM5 chip. AJ647 (3057.5 Da, 10 mM stock concentration) was used as the analyte, which flowed over the ligand immobilized surface. FC2 and FC4 was used as the experimental flow cell, while FC1 and FC3 served as the reference. Anti-His antibody (1 mg/ml stock concentration) was immobilized on all FCs using standard amine coupling chemistry. […] Human Nectin-4 was captured onto FC2 at a level of ~600 RU, with a 1:20 dilution and 10 μg/ml diluted concentration in PBS-P. Mouse Nectin-4 was captured onto FC4 at a level of 600 RU, with a 1:20 dilution and 10 μg/ml diluted concentration in PBS-P. The theoretical Rmax values were calculated based on the captured response values and are presented in table below, assuming a 1:1 interaction mechanism. […] All association and dissociation kinetics were evaluated by 1:1 kinetics model fitting.
On the technique in general: SPR reads the build-up and loss of mass on a sensor chip optically.

The target in the next data set is T2, mouse Nectin-4 (Mus musculus, UniProt Q8R007).
T2 construct: purchased R&D systems 3116-N4–050
T2 sequence (Q8R007 31-347 limits assumed): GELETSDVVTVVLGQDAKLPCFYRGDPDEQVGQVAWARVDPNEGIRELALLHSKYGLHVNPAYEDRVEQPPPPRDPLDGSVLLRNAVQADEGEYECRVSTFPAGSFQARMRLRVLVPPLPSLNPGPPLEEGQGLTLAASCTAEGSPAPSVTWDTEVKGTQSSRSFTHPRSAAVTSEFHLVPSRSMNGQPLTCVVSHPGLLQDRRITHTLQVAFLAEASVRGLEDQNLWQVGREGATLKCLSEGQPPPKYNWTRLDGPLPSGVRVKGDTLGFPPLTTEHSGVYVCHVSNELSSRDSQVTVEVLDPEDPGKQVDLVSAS
Description: Surface plasmon resonance, mouse Nectin-4. The class given is binding. Conditions: SPR Biacore T200, CM5 chip, 25 °C, His-tagged mouse Nectin-4 captured, PBS-P+1% DMSO, 1:1 kinetics fit; mean±SD n=3. On the procedure: as §1

The test system of another data set is Nectin-4. Conditions: cited from earlier work. The source says: A PEG linker was attached to the N-terminal cysteine residue of AJ632 (Fig. 2A). The free terminal amine was then conjugated to a NOTA chelator, enabling the successful radiolabeling with gallium-68 to produce [^68Ga]AJ647 and its non-radioactive analog [^natGa]AJ647. The radiolabeling process, performed as previously described ([16]), yielded [^68Ga]AJ647 with an 71.2±9.4% decay-corrected yield and 97±0.8% purity (n=20), ach ...

In data set [2] the target is T3, Nectin-4 on urothelial carcinoma cells (human (endogenous in HT1376, UC14, UC9, …, UniProt Q96NY8 32-510)).
T3 construct: Nectin-4, endogenous on the surface of urothelial carcinoma cell lines; also called cell surface Nectin-4; Nectin-4 receptor; source: endogenous, on HT1376, UC14, UC9, RT112 and SCaBER cells (and their xenografts)
T3 sequence (looked up): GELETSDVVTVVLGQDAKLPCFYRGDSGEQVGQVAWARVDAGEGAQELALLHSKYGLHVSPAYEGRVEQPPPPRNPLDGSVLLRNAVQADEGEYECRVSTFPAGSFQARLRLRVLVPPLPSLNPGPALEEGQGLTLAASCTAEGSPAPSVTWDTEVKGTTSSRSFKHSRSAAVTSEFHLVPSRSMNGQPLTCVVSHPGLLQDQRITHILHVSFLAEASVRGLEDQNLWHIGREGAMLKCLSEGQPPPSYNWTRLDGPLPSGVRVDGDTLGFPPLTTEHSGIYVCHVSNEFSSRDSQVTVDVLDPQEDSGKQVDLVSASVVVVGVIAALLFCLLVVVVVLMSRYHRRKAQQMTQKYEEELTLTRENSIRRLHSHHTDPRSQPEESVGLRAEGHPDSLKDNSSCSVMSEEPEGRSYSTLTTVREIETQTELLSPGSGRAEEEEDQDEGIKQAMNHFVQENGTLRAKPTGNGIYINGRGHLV
Description: flow cytometry on cells; competition: HT1376 cells with non-radioactive AJ647 5.4 uM to 0.01 nM for 30 min at 4 °C, washed, then EV-FITC for 30 min at 4 °C; mean fluorescence intensity as percent of 0 nM AJ647. Conditions: one partner purified. On the technique in general: A flow cytometer gives signals particle by particle.

For data set [3], the target named is T4, mouse Nectin-4 (recombinant) (mouse, UniProt Q8R007 31-347).
T4 chain: T2 sequence (Q8R007 31-347 limits assumed)
Description: SPR.

Data set [4] deals with T5, His-Tagged human Nectin-4 (human, UniProt Q96NY8 32-349).
T5 chain: T1 sequence (Q96NY8 32-349 limits assumed)
Description: SPR.

For `CSCC[C@@H]1NC(=O)[C@@H]2CSCCC(=O)N3CN(CN(C3)C(=O)CCSC[C@H](NC(=O)CCOCCOCCOCCOCCOCCOCCOCCOCCOCCOCCOCCOCCNC(=O)CN3CCN(CC(=O)O)CCN(CC(=O)O)CC3)C(=O)N3CCC[C@H]3C(=O)N[C@@H](Cc3cccc4ccccc34)C(=O)N[C@@H](CC(=O)O)C(=O)N2)C(=O)CCSC[C@@H](C(N)=O)NC(=O)[C@H](Cc2c[nH]c3ccccc23)NC(=O)[C@@H]2C[C@@H](O)CN2C(=O)[C@@H]2CCCN2C(=O)[C@H]([C@@H](C)O)NC(=O)[C@H](CO)NC(=O)[C@H](Cc2c[nH]c3ccccc23)NC(=O)[C@@H](CC(=O)O)NC(=O)[C@H](CCCCNC(=N)N)NC1=O` [[^68Ga]AJ647, metal not drawn], the “stability of [^68Ga]AJ647 confirmed” value in data set [1] is “up to 3 hours”. Moreover, the “[^68Ga]AJ647 binding (percent incubated activity)” value in the data set with T24 cells amounted to 0.2±0.11 %IA. Further, the tissue to tissue ratio at 0.25 h in “in vivo” (NSG) stood at 1.31 ± 0.41. For the same molecule, the tissue to tissue ratio at 1 h in “in vivo” (NSG) stood at 4.6 ± 1.07. The tissue uptake (usually the percentage of the injected dose found per gram of tissue) at 2 h in “in vivo” (Adrenals %IA/g) turned out to be 3.11 ± 0.21 %ID/g; in the data set “in vivo” (Large Intestine %IA/g) it was 0.18 ± 0.06 %ID/g. The tissue uptake at 3 h in “in vivo” (Adrenals %IA/g) is 3.01 ± 0.27 %ID/g; in “in vivo” (Brain %IA/g), 0.07 ± 0.01 %ID/g; in the data set “in vivo” (Kidney %IA/g) it was 24.8 ± 8.74 %ID/g; in the data set “in vivo” (Large Intestine %IA/g), 0.28 ± 0.13 %ID/g. Also, the values for the tissue uptake at 1 h in the data set “in vivo” (Large Intestine %IA/g) and in “in vivo” (Testicles %IA/g) were 0.25 ± 0.13 %ID/g and 0.71 ± 0.24 %ID/g, respectively.

For the molecule `CSCC[C@@H]1NC(=O)[C@@H]2CSCCC(=O)N3CN(CN(C3)C(=O)CCSC[C@H](NC(=O)CCOCCOCCOCCOCCOCCOCCOCCOCCOCCOCCOCCOCCNC(=O)CN3CCN(CC(=O)O)CCN(CC(=O)O)CC3)C(=O)N3CCC[C@H]3C(=O)N[C@@H](Cc3cccc4ccccc34)C(=O)N[C@@H](CC(=O)O)C(=O)N2)C(=O)CCSC[C@@H](C(N)=O)NC(=O)[C@H](Cc2c[nH]c3ccccc23)NC(=O)[C@@H]2C[C@@H](O)CN2C(=O)[C@@H]2CCCN2C(=O)[C@H]([C@@H](C)O)NC(=O)[C@H](CO)NC(=O)[C@H](Cc2c[nH]c3ccccc23)NC(=O)[C@@H](CC(=O)O)NC(=O)[C@H](CCCCNC(=N)N)NC1=O` [[^natGa]AJ647, metal not drawn], the Kd (in general, the concentration at which binding is half-saturated) at human Nectin-4 was found to be 15 ± 10.1 nM; on mouse Nectin-4, 14.1 ± 3.4 nM.

For the molecule “NH2-PEG12-(Cys-Pro-Nal-Asp-Cys-Met-hArg-dAsp-Trp-Ser-Thr-Pro-Hyp-Trp-Cys)-TATA based cyclization (bicyclic or more) [AJ632]”, in the data set on Nectin-4, the “affinity to Nectin-4” value is reported as “low nanomolar”.

With {NOTA-PEG12′}-CP[Nal]DCM[hArg][dD]WSTP[Hyp]WC-NH2 (linker 1-5-15 via TATA) [AJ647], the IC50 (in general, the concentration that gives 50% inhibition) in [2] came to 35 nM.

With {NOTA-PEG12′}-CP[Nal]DCM[hArg][dD]WSTP[Hyp]WC-NH2 (linker 1-5-15 via TATA; also: natGa complexed in NOTA) [[^natGa]AJ647], the koff – broadly, a measure of how fast the partners let go of each other – in data set [3] was determined as 0.0101 s⁻¹; in data set [4], 0.0106 s⁻¹.
